The Ki is a dissociation constant, usually derived from enzyme kinetics or from competition with a known ligand. A lower Ki goes with a stronger hold on the target.

We go through seven compounds from ChEMBL document CHEMBL1128710, “Synthesis of cluster galactosides with high affinity for the hepatic asialoglycoprotein receptor” (J Med Chem, 1995).

Assay [1] can be described thus: Affinity towards Asialoglycoprotein receptor using in vitro competition assay for [125I]- ASOR binding to the parenchymal liver cells of rat.
Assay [2] is described as follows: Affinity towards Asialoglycoprotein receptor using in vitro competition assay for [125I]- ASOR binding to the parenchymal liver cells of rabbit. On the set-up: species or system Oryctolagus cuniculus.

Turning to `COC(=O)CCCCC(=O)NCC(=O)NC(COCOCCCO[C@@H]1O[C@H](CO)[C@H](O)[C@H](O)[C@H]1O)(COCOCCCO[C@@H]1O[C@H](CO)[C@H](O)[C@H](O)[C@H]1O)COCOCCCO[C@@H]1O[C@H](CO)[C@H](O)[C@H](O)[C@H]1O`, the affinity in assay [1], expressed as Ki, was 1.2 µM. Same read-out and setting: to `COC(=O)CCCCC(=O)NCC(=O)NC(COCOCCOCCO[C@@H]1O[C@H](CO)[C@H](O)[C@H](O)[C@H]1O)(COCOCCOCCO[C@@H]1O[C@H](CO)[C@H](O)[C@H](O)[C@H]1O)COCOCCOCCO[C@@H]1O[C@H](CO)[C@H](O)[C@H](O)[C@H]1O` belongs 11 µM; to `CC(=O)N[C@@H]1[C@@H](O)[C@@H](O)[C@@H](CO)O[C@H]1O`, 870 µM; to `COC(=O)CCCCC(=O)NCC(=O)NC(COCOCCO[C@@H]1O[C@H](CO)[C@H](O)[C@H](O)[C@H]1O)(COCOCCO[C@@H]1O[C@H](CO)[C@H](O)[C@H](O)[C@H]1O)COCOCCO[C@@H]1O[C@H](CO)[C@H](O)[C@H](O)[C@H]1O`, 19 µM. Take `COC(=O)CCCCC(=O)NCC(=O)NC(CO[C@@H]1O[C@H](CO)[C@H](O)[C@H](O)[C@H]1O)(CO[C@@H]1O[C@H](CO)[C@H](O)[C@H](O)[C@H]1O)CO[C@@H]1O[C@H](CO)[C@H](O)[C@H](O)[C@H]1O`: the Ki was over 390 µM in assay [1] and 150 µM in assay [2]. As for `COC(=O)CCCCC(=O)NCC(=O)NC(COCOCCOCCOCCOCCO[C@H]1O[C@@H](CO)[C@@H](O)[C@@H](O)[C@@H]1O)(COCOCCOCCOCCOCCO[C@H]1O[C@@H](CO)[C@@H](O)[C@@H](O)[C@@H]1O)COCOCCOCCOCCOCCO[C@H]1O[C@@H](CO)[C@@H](O)[C@@H](O)[C@@H]1O`, in assay [1], the Ki was 0.2 µM. Turning to `CC(C)CCC[C@@H](C)[C@H]1CC[C@H]2[C@@H]3CC=C4C[C@@H](OC(=O)CCC(=O)NCC(=O)NC(CO[C@@H]5O[C@H](CO)[C@H](O)[C@H](O)[C@H]5O)(CO[C@@H]5O[C@H](CO)[C@H](O)[C@H](O)[C@H]5O)CO[C@@H]5O[C@H](CO)[C@H](O)[C@H](O)[C@H]5O)CC[C@]4(C)[C@H]3CC[C@]12C`, the inhibition constant Ki in assay [1] worked out at 14 µM.
